Experimental data as given in patent US20120202296A1, “SYSTEM, METHOD, AND APPARATUS FOR MEASURING AFFINITY CONSTANTS” (The Trustees of Columbia University in the City of New York, priority 2011, published 2012).

Assays:
[1] = tested on: control DNA (6-bp EcoR1 recognition sequence altered); assay: Time-resolved SH signal control experiment with DNA whose recognition sequence is altered; type: binding; details: control DNA without EcoR1 recognition sequence
[2] = tested on: ds biotinylated-DNA (90 bp) containing an EcoR1 recognition sequence; assay: Time-resolved second harmonic (SH) signal on adding EcoR1 to DNA-coated microparticles; type: binding; details: PSC-DNA microparticles
Text: A particular example of how to use the above quantification method and system was experimentally validated as follows. An experimental apparatus was used to measure a time-resolved SH signal that was similar to that described in Yan E C Y, Liu Y, Eisenthal K B (1998) “New method for determination of surface potential of microscopic particles by second harmonic generation.” J Phys Chem B 102:6331-6336 which is hereby incorporated by reference in its entirety. A Princeton Instruments CCD camera was used to acquire light samples. The fundamental laser frequency was centered at 810 nm with approximately 400 mW of average power and a pulse width of approximately 75 femtoseconds (10^−15 sec.; fs). […] Polystyrene carboxylate (PSC) microparticle-DNA bioconjugate particles were prepared in an analogous way to previous synthetic reports.
FIG. 1A is a figurative illustration of the resulting particles 6. A biotin binding protein 18, NeutrAvidin (NA), is linked to the PSC surface (diameter ¼ 1.0 μm, Invitrogen). A PSC-NA solution with a concentration of 5.6×10^9 particles/mL, was suspended in water at pH ¼ 7.5. To this solution ds biotinylated-DNA 12 (90 bp, Integrated DNA Technologies) containing an EcoR1 recognition sequence 8, which is 15 bp from the end attached to the microparticle, was added to a DNA concentration of 0.69 nM and incubated at 55° C. for 1 h. […]

EcoR1: restriction enzyme that binds its DNA recognition sequence, bends and cleaves the DNA
jump in the SH signal when EcoR1 is added [1]: did not show any jump in the SH signal | jump of the SH signal when EcoR1 is added ([2]; 2 mM NaCl): 9.5% | jump of the SH signal when EcoR1 is added ([2]; NaCl concentration 8.50 mM, NaCl in place of Mg2+): 30%
